{"source": "paper PMC4915154", "about": "“Development of background-free tame fluorescent probes for intracellular live cell imaging” (Nature Communications, 2016)", "key": {"[1]": {"tested_on": "mitochondria in U-2 OS cells", "test": "Mitochondria labelling with AzG-1 in cells pre-treated with TPP-BCN", "type": "cell-based, human", "details": "U-2 OS cells pre-treated with TPP-BCN, 10 μM AzG-1, 2 h", "experimental": "(§1) Excited with the results, we further challenged the model and developed another ‘tame' azide-bearing probe, AzG-1, to label molecules in mitochondria and the fancy tubulin protein in living cells (Figs 4a,b). To target mitochondria, U-2 OS cells were pre-treated with TPP-BCN (an analogue of triphenylphosphonium) before labelled with 10 μM AzG-1. For tubulin labelling, a cyclooctyne-containing UAA, N-ɛ-(cyclooct-2-yn-1-yloxy)carbonyl)L-lysine (CoK) was selected for incorporating into tubulin and reacting with AzG-1 via SPAAC.[29] CHO-K1 cells were co-transfected with plasmids pCoKRS-tRNA and pTub-26TAG to incorporate CoK into α-tubulin at position 26. Site-specific incorporation of CoK using an orthogonal tRNA^Pyl/CoKRS pair was confirmed via western blot analysis (Supplementary Figs. 19 and 20). After incorporation of CoK, cells were then labelled with 10 μM AzG-1 at 37 °C. CHO-K1 cells transfected with plasmid pEGFP-Tubwt expressing EGFP-fused wild-type α-tubulin was used as a control. Confocal fluorescence images were then taken AW of unreacted AzG-1.\n(§2) Figure 4 Live cell imaging with AzG-1 (a) Chemical structures of azide-bearing probe AzG-1 and its descriptor values. […] (c) Fluorescence imaging of mitochondria in U-2 OS cells labelled with AzG-1. […] (d) Fluorescence imaging of α-tubulin in live CHO-K1 cells. […]"}, "[2]": {"tested_on": "CoK-bearing α-tubulin in HeLa cells", "test": "Protein labelling on live cells using CoK (α-tubulin), HeLa", "type": "cell-based", "details": "CoK-bearing α-tubulin versus wild type", "experimental": "CHO-K1 or HeLa cells were grown in DMEM-low glucose 1 g l^−1 (Gibco) supplemented with 10% FBS (Gibco) in eight-well plate (ibid). At 70∼80% confluency, cells were transfected using 4 μl iN-fect in vitro transfection reagent with 100 ng pCoKRS-tRNA and 900 ng pTub-26TAG or with 900 ng pTubwt. After 6 h of incubation, media was replaced with fresh media (DMEM-low glucose medium with 10% FBS, 1% Pen-Strep, 2 Mm […]) containing 0.25 Mm CoK. After an additional 36 h, media was exchanged with normal growth media without CoK and cells were incubated for 2 h and washed (four times) to remove remaining CoK. Next, growth media containing 1 μM AzG-1 was added to the plates, and cells were incubated for 2 h with four times of washing (30 min each time) using growth media. High-resolution images of live cells were obtained using a Zeiss LSM510 META laser scanning confocal microscope.\nSupplementary Figure 21 Fluorescence imaging of α-tubulin in live HeLa.\nHeLa cells were co-transfected with plasmids pCoKRS-tRNA and pTub-26TAG or plasmid pTubwt followed by sequential treatment with CoK and AzG-1 as described above. Live cell […]\nin HeLa cells. Scale bar, 10 μm.\n(1 picture or pasted object on this page, not shown here)"}, "[3]": {"tested_on": "CoK-bearing α-tubulin in CHO-K1 cells", "test": "Protein labelling on live cells using CoK (α-tubulin), CHO-K1", "type": "cell-based", "details": "CoK at position 26 of α-tubulin, 10 μM AzG-1, 2 h, 37 °C", "experimental": "as §1, §2"}}}
{"molecule": "CC1=CC(C)=[N+]2C1=C(CCC(=O)NCCN=[N+]=[N-])c1c(C)cc(C)n1[B-]2(F)F", "note": "[AzG-1]", "values": [{"measurement": "Labelling of mitochondria", "setting": "[1]", "result": "specifically labelled mitochondria"}, {"measurement": "Labelling of α-tubulin", "setting": "[2]", "result": "conjugated specifically with CoK-bearing α-tubulin"}, {"measurement": "Labelling of α-tubulin", "setting": "[3]", "result": "conjugated specifically with CoK-bearing α-tubulin"}]}
